Laboratory results from paper PMC8237569 (Proceedings of the National Academy of Sciences of the …, 2021).
In brackets after ≈: the same amount, converted by molar mass. Like-named read-outs stand apart in the source and are kept apart here.

Legend:
[1] = system: F-ATP synthase; settings: read-out: IC50 against F-ATP synthase; cited from earlier work
[2] = system: M. tuberculosis H37Rv (ATCC 27294), wt; test: microbe, parasite or virus in culture; format: cell-based; settings: Mycobacterium tuberculosis, ATCC27294|H37RV
[3] = system: NC1=NC2(CCCCC2)N(c2ccc(OCc3cn(CCCCOc4ccc5ccc(=O)oc5c4)nn3)cc2)C(N)=N1; test: purified protein, by the assay type; settings: pH 7.5

Row | Compound | MIC50 [2] [nM] | further results
1 | COc1nc2ccc(Br)cc2cc1[C@@H](c1ccccc1)[C@@](O)(CCN(C)C)c1cccc2ccccc12 [Bedaquiline] | – | IC50 [1]: 2.5 nM
2 | NNC(=O)c1ccncc1 [INH, isoniazid] | 400 (≈ 0.0549 µg/mL) | –
3 | Nc1ccc(C(=O)O)c(O)c1 [PAS, para-aminosalicylic acid] | 200 (≈ 0.0306 µg/mL) | –
4 | O=[N+]([O-])c1cn2c(n1)OC[C@@H](OCc1ccc(OC(F)(F)F)cc1)C2 [PTM, pretomanid] | 200 (≈ 0.0719 µg/mL) | –
5 | CO[C@H]1/C=C/O[C@@]2(C)Oc3c(C)c(O)c4c(O)c(c(/C=N/N5CCN(C)CC5)c(O)c4c3C2=O)NC(=O)/C(C)=C\C=C\[C@H](C)[C@H](O)[C@@H](C)[C@@H](O)[C@@H](C)[C@H](OC(C)=O)[C@@H]1C [RIF, rifampicin] | – | MIC50 ([2]; read-out: MIC50, RIF (nM)): 1.6 nM (≈ 0.00132 µg/mL)
6 | Ddn (Rv3547) (Mycobacterium tuberculosis H37Rv) | – | Km [3]: 3.47 ± 0.51 µM
